Experimental data published in US9765017B2, “Allosteric hemoglobin modifiers with nitric oxide releasing moiety” (VIRGINIA COMMONWEALTH UNIVERSITY, priority 2013, dated 2017).

What was measured:
[1] = Stability of DMSO stock solution checked by UPLC-MS; type: physicochemical; conditions: 100 μM in DMSO, 3 months at −20° C., at least 6 freeze-thaw cycles
Experimental: The stability of nitrate esters was checked by performing UPLC-MS on a previously prepared stock solution of DD-1. A 100 μM stock solution was prepared in DMSO and stored for 3 months at −20° C. during which time it was exposed to at least 6 freeze-thaw cycles.

[2] = molecular target: T1, Hb (Homo sapiens, UniProt P68871+P69905); test: Effect on Hb affinity for oxygen (oxygen equilibrium curve study) using normal whole blood; type: cell-based; conditions: 2 mM compound; for ΔP50: versus DMSO control, whole blood; for N (Hill coefficient) / P50: whole blood (Hct ~29%), 37° C.
T1 construct: Normal whole blood used in some of the functional assays was collected from adult donors; from tissue; host or cells: normal human whole blood (red cells) from adult donors
Text: RSR-13 is an allosteric effector of Hb that acts by decreasing Hb affinity for O2, and as a result allows release of more O2 to tissues.^26 In this study, a nitrate ester moiety was incorporated onto RSR-13. It was proposed that, in vivo, the NO will cleave off, resulting in the parent compound and free NO, the former acting as right-shifter of the oxygen equilibrium curve while the latter is released into the vasculature. The following describe the synthesis of three nitrate esters of RSR-13, including DD-1, DD-2 and DD-3 (FIGS. 1-3). Other NO containing RSR-13 derivatives, such as those referenced above may be synthesized according to the same or similar processes. Normal whole blood used in some of the functional assays was collected from adult donors at the Virginia Commonwealth University after informed consent. Hb used for structural studies was purified from discarded normal blood samples. The use of these human samples is in accordance with regulations of the IRB for Protection of Human Subjects.
The effect of DD-1 on Hb affinity for oxygen was studied using whole blood with RSR-13 as a positive control. Solution of DD-1 and RSR-13 was added to 2 mL of whole blood (Hemocrit of ˜29%) to make a final drug concentration of 2 mM. Time-dependent studies were carried out at various time points (ranging from 1 h to 12 h) at 37° C. Briefly, blood-drug mixture samples at various time points were incubated in IL 237 tonometer (Instrumentation Laboratories, Inc., Lexington, Mass.) for about 5-7 min at 37° C. against gas mixture containing O2 concentrations of 0.804%, 2.935% and 8.785% and allowed to equilibrate at O2 tensions of 6, 20, 60 mmHg, respectively. After equilibration, the sample was removed via syringe and aspirated into a ABL 700 series table top automated blood gas analyzer (Radiometer America, Inc., Westlake, Ohio) to determine total hemoglobin (tHb), hematocrit (Hct), pH, pCO2, partial pressure of oxygen (pO2), and the Hb oxygen saturation values (sO2). The measured values of pO2 and sO2 at each oxygen saturation level were then subjected to a non-linear regression analysis using the program Scientist (Micromath, Salt Lake City, Utah) with the following equation:
[formula] This equation was used to calculate P50 and Hill coefficient (N) values. Corresponding control experiments without the test compound (P50control) but containing DMSO were also performed.

[3] = Griess assay of nitric oxide release (quantitated as NO2- release); type: physicochemical; conditions: 2 mM solution in 0.1 M phosphate buffer pH 7.4 mixed with 36 mM L-cysteine, 37° C., anaerobic
Experimental: A Griess assay was used to measure the NO releasing ability of DD-1 following literature procedures.^29-31 Solution of the test compound (1 mL of a 2 mM solution in 0.1 M phosphate buffer (pH 7.4)) was mixed thoroughly with a freshly prepared solution of L-cysteine (1 mL of a 36 mM solution in 0.1 M phosphate buffer, pH 7.4), and incubated at 37° C. for 1 and 16 h under anaerobic conditions. After exposure to air for 10 min at 25° C., an aliquot of the Griess reagent (1 mL) [freshly prepared by mixing equal volumes of 1.0% sulfanilamide (prepared and stored in aqueous 5% phosphoric acid) and 0.1% N-naphthylethylenediamine dihydrochloride in water] was added to equal volume (1 mL) of each incubation solution after mixing. After 10 min, absorbance was measured at 540 nm using a Hewlett Packard (Agilent) 8453 UV-visible Spectroscopy. NaNO2 solutions of 1-100 μM concentrations were used to prepare a standard nitrite curve of absorbance (nm) versus concentration (μM), and the NO released by DD-1 (quantitated as NO2^−release in μM) was calculated from the standard nitrite curve by extrapolation of the absorbance.

T1 sequence (P69905 2-142 limits assumed): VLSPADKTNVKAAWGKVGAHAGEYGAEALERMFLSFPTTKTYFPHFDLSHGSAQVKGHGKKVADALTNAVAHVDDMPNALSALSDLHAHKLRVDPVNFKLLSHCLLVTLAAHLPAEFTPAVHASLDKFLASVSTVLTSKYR
T1 sequence (P68871 2-147 limits assumed): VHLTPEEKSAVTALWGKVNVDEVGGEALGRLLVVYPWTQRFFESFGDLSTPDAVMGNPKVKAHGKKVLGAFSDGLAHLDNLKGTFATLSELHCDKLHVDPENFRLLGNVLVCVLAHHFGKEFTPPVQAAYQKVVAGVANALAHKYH

Structure (SMILES) | Stability of stock solution [1] | ΔP50 ([2]; incubation time 1 h) [mmHg] | ΔP50 ([2]; incubation time 2 h) [mmHg] | ΔP50 ([2]; incubation time 4 h) [mmHg] | ΔP50 ([2]; incubation time 8 h) [mmHg] | ΔP50 ([2]; incubation time 12 h) [mmHg] | N (Hill coefficient) ([2]; incubation time 1 h) | P50 ([2]; incubation time 1 h) [mmHg] | N (Hill coefficient) ([2]; incubation time 2 h) | P50 ([2]; incubation time 2 h) [mmHg] | N (Hill coefficient) ([2]; incubation time 4 h) | P50 ([2]; incubation time 4 h) [mmHg] | N (Hill coefficient) ([2]; incubation time 8 h) | P50 ([2]; incubation time 8 h) [mmHg] | N (Hill coefficient) ([2]; incubation time 12 h) | P50 ([2]; incubation time 12 h) [mmHg] | NO2- release after 1 hour ([3]; 1 h incubation) [µM] | NO2- release after 16 hours ([3]; 16 h incubation) [µM]
Cc1cc(C)cc(NC(=O)Cc2ccc(OC(C)(C)C(=O)OCCO[N+](=O)[O-])cc2)c1 [DD-1, 2-(Nitrooxy)ethyl 2-(4-(2-((3,5-dimethylphenyl)amino)-2-oxoethyl)phenoxy)-2-methylpropanoate] | stable | 3.2 | 6.3 | 16.3 | 25.4 | 27.8 | 2.3 | 35.7 | 2.1 | 39.2 | 1.9 | 49.9 | 1.7 | 60.3 | 1.7 | 64.8 | 9.61 | 5.35
Cc1cc(C)cc(NC(=O)Cc2ccc(OC(C)(C)C(=O)O)cc2)c1 [RSR-13, 2-[4-[2-[(3,5-dimethylphenyl)amino]-2-oxoethyl]phenoxy]-2-methylpropanoic acid, reference compound] |  | 15.3 | 15.0 | 16.1 | 16.9 | 15.6 | 1.8 | 47.8 | 1.9 | 47.9 | 1.8 | 49.7 | 1.8 | 51.8 | 1.9 | 52.6 |  | 
